Patent US11492335B2, “Aryl or heteroaryl triazolone derivatives or salts thereof, or pharmaceutical compositions comprising the same” (YUHAN CORPORATION, priority 2018, dated 2022)
Counter-ions that a name gives are not always drawn. Like-named read-outs stand apart in the source and are kept apart here.

Columns and labels:
Assay type in all cases: biochemical
recombinant human VAP-1 = target: T1, recombinant human VAP-1 (Homo sapiens, UniProt Q16853); assay: Activity on recombinant human VAP-1, Amplex Red HRP-coupled hydrogen peroxide assay, benzylamine substrate; conditions: recombinant human VAP-1, benzylamine substrate, read-out: Inhibitory Activity (IC50, nM) human VAP-1
T1 construct: purchased R&D systems
T1 sequence (Q16853 1-763): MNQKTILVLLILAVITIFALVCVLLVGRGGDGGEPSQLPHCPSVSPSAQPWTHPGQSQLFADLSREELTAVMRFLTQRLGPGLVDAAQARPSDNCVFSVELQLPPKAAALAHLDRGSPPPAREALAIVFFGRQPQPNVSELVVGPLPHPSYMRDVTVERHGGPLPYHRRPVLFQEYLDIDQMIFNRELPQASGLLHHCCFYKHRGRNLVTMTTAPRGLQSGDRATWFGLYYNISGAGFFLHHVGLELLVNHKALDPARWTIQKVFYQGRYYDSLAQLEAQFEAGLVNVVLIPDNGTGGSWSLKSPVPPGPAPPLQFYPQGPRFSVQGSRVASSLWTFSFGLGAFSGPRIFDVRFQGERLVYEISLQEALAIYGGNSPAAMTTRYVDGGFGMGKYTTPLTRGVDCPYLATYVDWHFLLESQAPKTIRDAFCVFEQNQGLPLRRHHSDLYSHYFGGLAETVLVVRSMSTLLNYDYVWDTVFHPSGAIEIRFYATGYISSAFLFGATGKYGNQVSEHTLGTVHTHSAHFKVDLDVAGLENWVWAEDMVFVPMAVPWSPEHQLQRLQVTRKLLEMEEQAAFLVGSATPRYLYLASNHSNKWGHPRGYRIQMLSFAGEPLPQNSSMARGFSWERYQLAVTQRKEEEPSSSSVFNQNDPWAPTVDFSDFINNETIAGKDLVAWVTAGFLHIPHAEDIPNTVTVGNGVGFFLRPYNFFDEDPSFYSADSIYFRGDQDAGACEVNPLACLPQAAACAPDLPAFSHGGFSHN
Procedure, shortened: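 Dose-response IC50 determined from reduction in resorufin signal rate (544/590 nm, 1-2 h), with 30 min compound preincubation at 37 °C and 1 mM benzylamine as substrate.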

[1] = target: T2, recombinant human MAO-A (monoamine oxidase-A) (Homo sapiens, UniProt P21397); assay: Activity on recombinant human MAO-A, Amplex Red method, 0.5 mM tyramine substrate; conditions: read-out: Inhibitory Activity (IC50, nM) MAO-A
T2 construct: purchased Sigma-Aldrich
T2 sequence (P21397 1-527): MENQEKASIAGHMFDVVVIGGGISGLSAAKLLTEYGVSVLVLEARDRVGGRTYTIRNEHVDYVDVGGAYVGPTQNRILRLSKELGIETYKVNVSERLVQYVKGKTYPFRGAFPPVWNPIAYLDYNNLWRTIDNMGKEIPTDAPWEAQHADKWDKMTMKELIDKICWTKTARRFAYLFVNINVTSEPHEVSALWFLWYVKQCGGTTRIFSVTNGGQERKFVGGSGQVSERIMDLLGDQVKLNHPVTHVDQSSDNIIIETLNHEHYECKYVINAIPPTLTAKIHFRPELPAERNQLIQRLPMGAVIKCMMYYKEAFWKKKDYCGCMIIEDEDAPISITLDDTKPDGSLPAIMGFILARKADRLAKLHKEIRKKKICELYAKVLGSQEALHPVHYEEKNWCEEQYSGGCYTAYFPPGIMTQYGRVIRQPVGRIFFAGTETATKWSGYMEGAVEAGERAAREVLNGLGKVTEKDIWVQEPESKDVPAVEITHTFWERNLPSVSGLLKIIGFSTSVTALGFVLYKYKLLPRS
Procedure, shortened: (§1)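 Amplex Red/HRP coupled read-out of H2O2 with 0.5 mM tyramine for MAO-A or 1 mM benzylamine for MAO-B, following a 30-min compound–enzyme preincubation at 37° C. IC50 from percent inhibition of signal rate relative to uninhibited control.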

[2] = target: T3, recombinant human MAO-B (monoamine oxidase-B) (Homo sapiens, UniProt P27338); assay: Activity on recombinant human MAO-B, Amplex Red method, 1 mM benzylamine substrate; conditions: read-out: Inhibitory Activity (IC50, nM) MAO-B
T3 construct: purchased Sigma-Aldrich
T3 sequence (P27338 1-520): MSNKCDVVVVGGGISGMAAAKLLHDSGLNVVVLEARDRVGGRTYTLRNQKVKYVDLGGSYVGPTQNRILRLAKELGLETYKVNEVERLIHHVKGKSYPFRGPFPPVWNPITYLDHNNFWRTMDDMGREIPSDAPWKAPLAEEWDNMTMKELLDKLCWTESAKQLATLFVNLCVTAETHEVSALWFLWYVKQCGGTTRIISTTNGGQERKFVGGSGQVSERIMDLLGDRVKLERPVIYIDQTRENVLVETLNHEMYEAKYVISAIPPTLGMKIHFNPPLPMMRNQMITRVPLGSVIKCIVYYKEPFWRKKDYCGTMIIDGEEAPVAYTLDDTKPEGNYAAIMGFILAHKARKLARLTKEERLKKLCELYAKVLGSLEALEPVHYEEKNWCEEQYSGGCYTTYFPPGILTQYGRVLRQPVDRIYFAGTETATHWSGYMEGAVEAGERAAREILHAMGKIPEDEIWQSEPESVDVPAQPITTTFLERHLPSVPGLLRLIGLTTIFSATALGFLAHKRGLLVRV
Procedure, shortened: as §1

[3] = target: T4, recombinant human DAO (diamine oxidase) (Homo sapiens, UniProt P19801); assay: Activity on recombinant human DAO, Amplex Red method, 1 mM putrescine substrate; conditions: recombinant human DAO, read-out: Inhibitory Activity (IC50, nM) DAO
T4 construct: purchased R&D systems
T4 sequence (P19801 20-751): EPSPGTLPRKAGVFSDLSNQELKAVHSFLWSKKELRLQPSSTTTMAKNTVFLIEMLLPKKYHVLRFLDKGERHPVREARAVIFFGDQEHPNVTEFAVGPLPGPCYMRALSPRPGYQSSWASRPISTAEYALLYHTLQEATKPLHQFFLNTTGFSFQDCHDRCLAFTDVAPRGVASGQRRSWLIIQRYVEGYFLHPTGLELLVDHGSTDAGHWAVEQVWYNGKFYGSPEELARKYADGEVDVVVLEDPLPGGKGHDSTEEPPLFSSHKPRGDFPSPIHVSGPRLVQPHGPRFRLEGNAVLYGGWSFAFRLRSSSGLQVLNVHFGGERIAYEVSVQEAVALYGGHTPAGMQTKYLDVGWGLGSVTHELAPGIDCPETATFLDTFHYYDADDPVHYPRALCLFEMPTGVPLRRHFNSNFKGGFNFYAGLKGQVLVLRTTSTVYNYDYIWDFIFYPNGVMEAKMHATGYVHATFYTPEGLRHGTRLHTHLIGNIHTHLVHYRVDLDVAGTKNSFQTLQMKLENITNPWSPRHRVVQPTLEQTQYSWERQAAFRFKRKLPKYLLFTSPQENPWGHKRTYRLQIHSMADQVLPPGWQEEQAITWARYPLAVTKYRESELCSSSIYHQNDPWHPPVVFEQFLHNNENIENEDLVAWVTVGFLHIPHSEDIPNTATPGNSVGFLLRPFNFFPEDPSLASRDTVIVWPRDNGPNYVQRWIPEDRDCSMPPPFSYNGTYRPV
Procedure, shortened: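 Inhibition of recombinant human DAO (diamine oxidase, R&D systems) was assessed with the Amplex Red Hydrogen Peroxide Assay Kit. Hydrogen peroxide produced from 1 mM putrescine was detected through an HRP-coupled reaction that converts Amplex Red into fluorescent resorufin, read at 544 nm excitation and 590 nm emission. IC50 values came from four-parameter logistic fits in GraphPad Prism.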

[4] = 1 mM putrescine, * = between 10 and 100 nM, ** = between 300 and 1000 nM

SMILES | IC50 (recombinant human VAP-1) [nM] | IC50 ([1]; 0.5 mM tyramine substrate) [nM] | IC50 ([2]; 1 mM benzylamine substrate) [nM] | IC50 ([3]; 1 mM putrescine substrate) [nM] | IC50 (recombinant human VAP-1; 30 min preincubation at 37° C.) [nM] | IC50 ([1]; 0.5 mM tyramine) [nM] | IC50 ([2]; 1 mM benzylamine) [nM] | IC50 [3, 4] [nM]
Cc1cc(-n2cnn(C/C(=C/F)CN)c2=O)ncc1-c1ccc2cn[nH]c2c1 [Example 160, 2-[(2E)-2-(aminomethyl)-3-fluoroprop-2-en-1-yl]-4-[5-(1H-indazol-6-yl)-4-methylpyridin-2-yl]-2,4-dihydro-3H-1,2,4-triazol-3-one] | 0.37 | 46200 | 137 | < 100 | – | – | – | –
NC/C(=C\F)Cn1ncn(-c2cccc(-c3ccc(C4CCOCC4)cc3)c2)c1=O [Example 73, 2-[(2E)-2-(aminomethyl)-3-fluoroprop-2-en-1-yl]-4-[4′-(tetrahydro-2H-pyran-4-yl)biphenyl-3-yl]-2,4-dihydro-3H-1,2,4-triazol-3-one hydrochloride] | – | – | – | – | 0.98 | > 100000 | > 10000 | 67
Cc1ccc(-c2ccc3cn[nH]c3c2)nc1-n1cnn(C/C(=C/F)CN)c1=O [Example 214, 2-[(2E)-2-(aminomethyl)-3-fluoroprop-2-en-1-yl]-4-[6-(1H-indazol-6-yl)-3-methylpyridin-2-yl]-2,4-dihydro-3H-1,2,4-triazol-3-one hydrochloride] | 23 | > 100000 | > 100000 | 1400 | – | – | – | –
NC/C(=C\F)Cn1ncn(-c2cccc(Br)n2)c1=O [Example 37, 2-[(2E)-2-(aminomethyl)-3-fluoroprop-2-en-1-yl]-4-(6-bromopyridin-2-yl)-2,4-dihydro-3H-1,2,4-triazol-3-one] | – | – | – | – | 1.8 | > 100000 | > 10000 | 16
NC/C(=C\F)Cn1ncn(-c2cccc(/C=C/c3ccc(C(F)(F)F)cc3)n2)c1=O [Example 238, 2-[(2E)-2-(aminomethyl)-3-fluoroprop-2-en-1-yl]-4-(6-{(E)-2-[4-(trifluoromethyl)phenyl]ethenyl}pyridin-2-yl)-2,4-dihydro-3H-1,2,4-triazol-3-one Hydrochloride] | 0.9 | 34000 | 1600 | 15 | – | – | – | –
NC/C(=C\F)Cn1ncn(-c2ccc(Br)cc2)c1=O [Example 2, 2-[(2E)-2-(aminomethyl)-3-fluoroprop-2-en-1-yl]-4-(4-bromophenyl)-2,4-dihydro-3H-1,2,4-triazol-3-one] | – | – | – | – | 0.9 | 2900 | 86 | 120
CN1C(=O)CCc2cc(-c3cccc(-n4cnn(C/C(=C/F)CN)c4=O)n3)ccc21 [Example 198, 6-[6-[1-[(E)-2-(aminomethyl)-3-fluoro-allyl]-5-oxo-1,2,4-triazol-4-yl]-2-pyridyl]-1-methyl-3,4-dihydroquinolin-2-one hydrochloride] | 2.9 | > 100000 | > 10000 | 130 | – | – | – | –

Second part, the compound after the results:

IC50 (recombinant human VAP-1) [nM] | IC50 ([1]; 0.5 mM tyramine substrate) [nM] | IC50 ([2]; 1 mM benzylamine substrate) [nM] | IC50 ([3]; 1 mM putrescine substrate) [nM] | IC50 (recombinant human VAP-1; 30 min preincubation at 37° C.) [nM] | IC50 ([1]; 0.5 mM tyramine) [nM] | IC50 ([2]; 1 mM benzylamine) [nM] | IC50 [3, 4] [nM] | SMILES
– | – | – | – | 0.63 | > 100000 | > 10000 | < 100 | NC/C(=C/F)Cn1ncn(-c2cccc(-c3ccc(-c4nnc[nH]4)cc3)c2)c1=O [Example 58, 2-[(2Z)-2-(aminomethyl)-3-fluoroprop-2-en-1-yl]-4-[4′-(4H-1,2,4-triazol-3-yl)biphenyl-3-yl]-2,4-dihydro-3H-1,2,4-triazol-3-one]
0.98 | 130 | 12 | < 100 | – | – | – | – | NC/C(=C\F)Cn1ncn(-c2ncc(-c3ccc(-c4ncon4)cc3)s2)c1=O [Example 229]
– | – | – | – | 0.39 | 26000 | 20 | 1 to 10 | CC(=O)Nc1ccc(-c2ccc(-n3cnn(C/C(=C\F)CN)c3=O)nc2)cc1 [Example 130, N-[4-(6-{1-[(2Z)-2-(aminomethyl)-3-fluoroprop-2-en-1-yl]-5-oxo-1,5-dihydro-4H-1,2,4-triazol-4-yl}pyridin-3-yl)phenyl]acetamide hydrochloride]
– | – | – | – | 1.2 | 2600 | 28 | 25 | NC/C(=C/F)Cn1ncn(-c2ccc(Br)cn2)c1=O [Example 29, 2-[(2Z)-2-(aminomethyl)-3-fluoroprop-2-en-1-yl]-4-(5-bromopyridin-2-yl)-2,4-dihydro-3H-1,2,4-triazol-3-one hydrochloride]
1.4 | > 100000 | > 100000 | 29000 | – | – | – | – | Cc1cc(-c2ccc(N3CCNCC3)nc2)cnc1-n1cnn(C/C(=C/F)CN)c1=O [Example 259, 2-[(E)-2-(aminomethyl)-3-fluoro-allyl]-4-[3-methyl-5-(6-piperazin-1-yl-3-pyridyl)-2-pyridyl]-1,2,4-triazol-3-one]
